Data as given in patent publication EP0451834B1, “Alpha-mannosidase and fucosidase inhibitors” (MERRELL PHARMACEUTICALS INC., priority 1990, dated 1991).
pIC50: −log10 of the molar value.

Biological target: T1, α-Mannosidase (Jack bean) (Canavalia ensiformis, UniProt C0HJB3)
T1 sequence (C0HJB3 1-981): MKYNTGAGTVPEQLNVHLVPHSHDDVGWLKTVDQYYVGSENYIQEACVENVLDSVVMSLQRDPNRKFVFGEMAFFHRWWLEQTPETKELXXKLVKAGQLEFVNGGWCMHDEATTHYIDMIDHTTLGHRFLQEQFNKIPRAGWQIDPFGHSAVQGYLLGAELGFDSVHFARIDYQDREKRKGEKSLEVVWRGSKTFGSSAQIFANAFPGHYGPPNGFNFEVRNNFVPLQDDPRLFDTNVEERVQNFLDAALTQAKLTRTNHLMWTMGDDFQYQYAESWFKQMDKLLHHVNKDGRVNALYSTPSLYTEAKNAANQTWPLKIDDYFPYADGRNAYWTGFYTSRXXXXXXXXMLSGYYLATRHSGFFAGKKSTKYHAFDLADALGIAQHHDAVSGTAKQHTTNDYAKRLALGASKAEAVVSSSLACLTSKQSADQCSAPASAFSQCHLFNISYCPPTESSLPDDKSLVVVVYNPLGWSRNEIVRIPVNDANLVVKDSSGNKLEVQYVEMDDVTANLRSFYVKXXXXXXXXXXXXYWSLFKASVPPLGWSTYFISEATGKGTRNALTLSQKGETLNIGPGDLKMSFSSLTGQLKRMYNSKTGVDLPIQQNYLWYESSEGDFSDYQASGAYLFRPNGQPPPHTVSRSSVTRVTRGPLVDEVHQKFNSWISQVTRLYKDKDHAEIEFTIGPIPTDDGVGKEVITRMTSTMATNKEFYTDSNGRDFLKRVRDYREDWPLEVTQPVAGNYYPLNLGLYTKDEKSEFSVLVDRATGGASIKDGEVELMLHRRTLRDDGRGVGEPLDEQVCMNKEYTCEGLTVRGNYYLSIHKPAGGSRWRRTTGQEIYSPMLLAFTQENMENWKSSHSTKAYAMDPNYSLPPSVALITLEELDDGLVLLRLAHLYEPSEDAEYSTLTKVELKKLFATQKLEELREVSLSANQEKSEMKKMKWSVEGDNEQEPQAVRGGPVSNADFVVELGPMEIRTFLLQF
Test: Mannosidase screening assay (p-nitrophenyl-α-mannopyranoside substrate, absorbance at 405 nm)
Assay type: biochemical
Conditions: Jack bean enzyme, sodium acetate buffer pH 4.5, 37° for 30 min
Description: This can be demostrated by the ability of the compound to inhibit Jack bean mannosidase or mannosidase II as follows: Mannosidase Screening Assay (Kang, et al., Plant Physiol. 71:551-554 (1983)). Activities of mannosidase are first screened with Jack bean enzyme using p-nitrophenyl substrate as follows using a 96-well microplate. Total Rxn mix 200µl. • 1. Add compounds to be tested and dilute to 100µl with H2O. • 2. Add 25µl of 1M sodium acetate buffer pH 4.5 containing 10mM ZnCl2. • 3. Add 25µl of enzyme or approximately 0.05 µg protein. • 4. Mix and incubate at R.T. for 30 min. • 5. Add 50µl of 10 mM p-nitrophenyl-α-mannopyranoside in H2O to start the Rxn and incubate 37° for 30 min. Stop reaction by addition 100µl of 0.2M (2%) sodium carbonate solution (pH∼12). Read absorbance at 405 nm.

Structure (SMILES): CN[C@@H]1[C@@H](O)[C@@H](O)[C@H](O)[C@H]1CO [1,3β,5β,R=CH3, (1α,2β,3β,4α,5β)-Methyl[2,3,4-trihydroxy-5-(hydroxymethyl)cyclopentyl]amine]
- pIC50: 7.21
